{"source": "patent US20250032651A1", "about": "“[177LU] LUTETIUM-PSMA I&T COMPOSITION AND DOSIMETRY, KIT, METHOD OF MAKING, AND METHOD OF USING THEREOF” (Curium US LLC, priority 2022, published 2025)", "assay": "Normal organ dosimetry Cycle 1: SPECT/CT, TIACs, OLINDA 2.2.3 absorbed radiation dose", "assay_type": "in vivo, human", "conditions": "for Absorbed Dose, Mean / Absorbed Dose, max / Absorbed Dose, median / Absorbed Dose, min: Cycle 1, n = 26", "experimental": "This Example presents the biodistribution, dosimetry, and pharmacokinetics (PK) results of a PK/Dosimetry sub-study performed as part of a Phase III trial. Twenty-seven (27) patients were administered a target activity of 7.4±10% GBq of ^177Lu-PSMA-I&T and underwent single photon emission computed tomography (SPECT)/computed tomography (CT) imaging at four timepoints (4 h, 24 h, 48 h, and 168 h). Image data was analysed to compute time-activity curves (TACs) and subsequently time-integrated activity coefficients (TIACs) in each organ of interest and in organs showing appreciable and meaningful ^177Lu-PSMA-I&T activity. Organ Level Internal Dose Assessment (OLINDA 2.2.3) was used to compute organ and whole body absorbed radiation doses for each patient.\nAll participating sites underwent a rigorous site setup process during which all dose calibrators, scanners, and gamma counters used in the sub-study were calibrated. Sites were allowed to enroll patients in the sub-study only after the completion and approval of all site setup processes by Invicro. Patients underwent SPECT/CT imaging, with anatomical coverage typically extending from the salivary glands to the pelvis, following the administration of a targeted 7.4±10% GBq of ^177Lu-PSMA-I&T at cycle 1. SPECT/CT imaging was performed at four timepoints: 4 h, 24 h, 48 h, and 168 h post-injection. Additionally, a subset of patients imaged at Cycle 1 (16 out of 27), were also imaged at Cycle 3 (Table 2).\nThe imaging data was analyzed using Invicro's VivoQuant software, a validated software used in a 21 CFR § 11-compliant workflow. The general quantification approach was based on the principles detailed in the Medical Internal Radiation Dose (MIRD) Pamphlet No. 16, No 23, and No 26 as appropriate.\nVolume of interest (VOI) (kidneys, bladder, liver, lumbar vertebrae L2-L4, lacrimal glands, salivary glands [parotid and submandibular glands], and whole body) were delineated on each dataset by a trained image analyst. […] Organs were segmented either by drawing the entire contour of the organ, or by placing a sphere in a representative region of the organ and then multiplying by the organ's effective mass (based on patient's height and weight). Segmentation methods for each organ are specified in Table 3 and were consistently applied to each patient.\nClearance of the radiopharmaceutical was derived from a data-appropriate fit of each organ's TAC. Depending on the TAC's shape, the data was fitted with the sum of one, two, or three exponentials, or using a rise and fall model. Fitting was performed with in-house Python software. TIACs were calculated through analytical integration of the curve fit extrapolated to infinity. […] A whole-body TAC was derived from delineating the imaged body. The remainder activity was determined by subtracting the cumulative organ TIACs from the whole body TIAC.\nOrgan TIACs were input into OLINDA 2.2.3 for the computation of organ and whole-body absorbed doses, using International Commission on Radiological Protection (ICRP)-103 weighing factors. The ICRP-89 derived male phantom was used for dose estimation. Organs and body mass as defined by ICRP-89 were scaled based on height and mass using patient effective mass.^4 The voiding bladder model as implemented in OLINDA was used to determine bladder TIAC, assuming a voiding interval of 4 hours. The human alimentary tract model (HAT model) described in ICRP 100 and implemented in OLINDA was used to compute doses to the small intestine, right colon, left colon and rectum for patients showing clearance through the GI tract. The fraction of injected activity (fIA) cleared via the GI tract was determined by taking the peak fIA in the GI tract over all the imaging timepoints. […] The Red Marrow mass in L2-L4 was assumed to be 6.7% of the total red marrow mass.", "key": {"[1]": {"conditions": "Kidneys, 16 patients imaged at cycle 1 and 3"}, "[2]": {"conditions": "Lacrimal Glands (OLINDA sphere model), 16 patients imaged at cycle 1 and 3"}, "[3]": {"conditions": "Lacrimal Glands, N = 16, OLINDA sphere model"}, "[4]": {"conditions": "Left colon, 16 patients imaged at cycle 1 and 3"}, "[5]": {"conditions": "Liver, 16 patients imaged at cycle 1 and 3"}, "[6]": {"conditions": "Lungs, 16 patients imaged at cycle 1 and 3"}, "[7]": {"conditions": "Osteogenic cells, 16 patients imaged at cycle 1 and 3"}, "[8]": {"conditions": "Pancreas, 16 patients imaged at cycle 1 and 3"}}}
{"smiles": "O=C([O-])CC[C@H](NC(=O)N[C@@H](CCCCNC(=O)CCCCCCC(=O)NCCCC[C@@H](NC(=O)[C@@H](Cc1ccccc1)NC(=O)[C@@H](Cc1ccc(O)c(I)c1)NC(=O)CC[C@H](C(=O)[O-])N1CCN(CC(=O)[O-])CCN(CC(=O)[O-])CCN(CC(=O)[O-])CC1)C(=O)[O-])C(=O)[O-])C(=O)[O-].[177Lu+3].[H+].[H+].[H+].[H+].[H+]", "note": "[^177Lu-PSMA I&T, (3S,7S,26R,29R,32R,37R)-29-benzyl-32-(4-hydroxy-3-iodobenzyl)-5,13,20,28,31,34-hexaoxo-37-(4,7,10-tris(carboxymethyl)-1,4,7,10-tetraazacyclododecan-1-yl)-4,6,12,21,27,30,33-heptaazaheptatriacontane-1,3,7,26,37-pentacarboxylic acid; lutetium-177 (III)]", "values": [{"measurement": "Absorbed Dose in Cycle 1, min", "setting": "Heart wall, N = 16", "result": 0.00, "unit": "Gy/GBq"}, {"measurement": "Absorbed Dose in Cycle 1, Mean", "setting": "[1]", "result": 0.41, "unit": "Gy/GBq"}, {"measurement": "Absorbed Dose in Cycle 1, max", "setting": "[1]", "result": 0.81, "unit": "Gy/GBq"}, {"measurement": "Absorbed Dose in Cycle 1, min", "setting": "[1]", "result": 0.17, "unit": "Gy/GBq"}, {"measurement": "Absorbed Dose, Mean", "setting": "Kidneys", "result": 0.41, "unit": "Gy/GBq"}, {"measurement": "Absorbed Dose, max", "setting": "Kidneys", "result": 0.81, "unit": "Gy/GBq"}, {"measurement": "Absorbed Dose, median", "setting": "Kidneys", "result": 0.37, "unit": "Gy/GBq"}, {"measurement": "Absorbed Dose, min", "setting": "Kidneys", "result": 0.17, "unit": "Gy/GBq"}, {"measurement": "Absorbed Dose in Cycle 1, Mean", "setting": "Kidneys, N = 16", "result": 0.41, "unit": "Gy/GBq"}, {"measurement": "Absorbed Dose in Cycle 1, max", "setting": "Kidneys, N = 16", "result": 0.81, "unit": "Gy/GBq"}, {"measurement": "Absorbed Dose in Cycle 1, min", "setting": "Kidneys, N = 16", "result": 0.17, "unit": "Gy/GBq"}, {"measurement": "Absorbed Dose in Cycle 1, Mean", "setting": "[2]", "result": 0.39, "unit": "Gy/GBq"}, {"measurement": "Absorbed Dose in Cycle 1, max", "setting": "[2]", "result": 1.19, "unit": "Gy/GBq"}, {"measurement": "Absorbed Dose in Cycle 1, min", "setting": "[2]", "result": 0.04, "unit": "Gy/GBq"}, {"measurement": "Absorbed Dose, Mean", "setting": "Lacrimal Glands", "result": 0.40, "unit": "Gy/GBq"}, {"measurement": "Absorbed Dose, max", "setting": "Lacrimal Glands", "result": 1.19, "unit": "Gy/GBq"}, {"measurement": "Absorbed Dose, median", "setting": "Lacrimal Glands", "result": 0.26, "unit": "Gy/GBq"}, {"measurement": "Absorbed Dose, min", "setting": "Lacrimal Glands", "result": 0.04, "unit": "Gy/GBq"}, {"measurement": "Absorbed Dose in Cycle 1, Mean", "setting": "[3]", "result": 0.39, "unit": "Gy/GBq"}, {"measurement": "Absorbed Dose in Cycle 1, max", "setting": "[3]", "result": 1.19, "unit": "Gy/GBq"}, {"measurement": "Absorbed Dose in Cycle 1, min", "setting": "[3]", "result": 0.04, "unit": "Gy/GBq"}, {"measurement": "Absorbed Dose in Cycle 1, Mean", "setting": "[4]", "result": 0.52, "unit": "Gy/GBq"}, {"measurement": "Absorbed Dose in Cycle 1, max", "setting": "[4]", "result": 1.53, "unit": "Gy/GBq"}, {"measurement": "Absorbed Dose in Cycle 1, min", "setting": "[4]", "result": 0.01, "unit": "Gy/GBq"}, {"measurement": "Absorbed Dose, Mean", "setting": "Left colon", "result": 0.47, "unit": "Gy/GBq"}, {"measurement": "Absorbed Dose, max", "setting": "Left colon", "result": 1.53, "unit": "Gy/GBq"}, {"measurement": "Absorbed Dose, median", "setting": "Left colon", "result": 0.41, "unit": "Gy/GBq"}, {"measurement": "Absorbed Dose, min", "setting": "Left colon", "result": 0.01, "unit": "Gy/GBq"}, {"measurement": "Absorbed Dose in Cycle 1, Mean", "setting": "Left colon, N = 16", "result": 0.52, "unit": "Gy/GBq"}, {"measurement": "Absorbed Dose in Cycle 1, max", "setting": "Left colon, N = 16", "result": 1.53, "unit": "Gy/GBq"}, {"measurement": "Absorbed Dose in Cycle 1, min", "setting": "Left colon, N = 16", "result": 0.01, "unit": "Gy/GBq"}, {"measurement": "Absorbed Dose in Cycle 1, Mean", "setting": "[5]", "result": 0.04, "unit": "Gy/GBq"}, {"measurement": "Absorbed Dose in Cycle 1, max", "setting": "[5]", "result": 0.10, "unit": "Gy/GBq"}, {"measurement": "Absorbed Dose in Cycle 1, min", "setting": "[5]", "result": 0.01, "unit": "Gy/GBq"}, {"measurement": "Absorbed Dose, Mean", "setting": "Liver", "result": 0.04, "unit": "Gy/GBq"}, {"measurement": "Absorbed Dose, max", "setting": "Liver", "result": 0.10, "unit": "Gy/GBq"}, {"measurement": "Absorbed Dose, median", "setting": "Liver", "result": 0.03, "unit": "Gy/GBq"}, {"measurement": "Absorbed Dose, min", "setting": "Liver", "result": 0.01, "unit": "Gy/GBq"}, {"measurement": "Absorbed Dose in Cycle 1, Mean", "setting": "Liver, N = 16", "result": 0.04, "unit": "Gy/GBq"}, {"measurement": "Absorbed Dose in Cycle 1, max", "setting": "Liver, N = 16", "result": 0.10, "unit": "Gy/GBq"}, {"measurement": "Absorbed Dose in Cycle 1, min", "setting": "Liver, N = 16", "result": 0.01, "unit": "Gy/GBq"}, {"measurement": "Absorbed Dose in Cycle 1, Mean", "setting": "[6]", "result": 0.01, "unit": "Gy/GBq"}, {"measurement": "Absorbed Dose in Cycle 1, max", "setting": "[6]", "result": 0.07, "unit": "Gy/GBq"}, {"measurement": "Absorbed Dose in Cycle 1, min", "setting": "[6]", "result": 0.00, "unit": "Gy/GBq"}, {"measurement": "Absorbed Dose, Mean", "setting": "Lungs", "result": 0.01, "unit": "Gy/GBq"}, {"measurement": "Absorbed Dose, max", "setting": "Lungs", "result": 0.07, "unit": "Gy/GBq"}, {"measurement": "Absorbed Dose, median", "setting": "Lungs", "result": 0.01, "unit": "Gy/GBq"}, {"measurement": "Absorbed Dose, min", "setting": "Lungs", "result": 0.00, "unit": "Gy/GBq"}, {"measurement": "Absorbed Dose in Cycle 1, Mean", "setting": "Lungs, N = 16", "result": 0.01, "unit": "Gy/GBq"}, {"measurement": "Absorbed Dose in Cycle 1, max", "setting": "Lungs, N = 16", "result": 0.07, "unit": "Gy/GBq"}, {"measurement": "Absorbed Dose in Cycle 1, min", "setting": "Lungs, N = 16", "result": 0.00, "unit": "Gy/GBq"}, {"measurement": "Absorbed Dose in Cycle 1, Mean", "setting": "[7]", "result": 0.04, "unit": "Gy/GBq"}, {"measurement": "Absorbed Dose in Cycle 1, max", "setting": "[7]", "result": 0.19, "unit": "Gy/GBq"}, {"measurement": "Absorbed Dose in Cycle 1, min", "setting": "[7]", "result": 0.00, "unit": "Gy/GBq"}, {"measurement": "Absorbed Dose, Mean", "setting": "Osteogenic cells", "result": 0.05, "unit": "Gy/GBq"}, {"measurement": "Absorbed Dose, max", "setting": "Osteogenic cells", "result": 0.29, "unit": "Gy/GBq"}, {"measurement": "Absorbed Dose, median", "setting": "Osteogenic cells", "result": 0.02, "unit": "Gy/GBq"}, {"measurement": "Absorbed Dose, min", "setting": "Osteogenic cells", "result": 0.00, "unit": "Gy/GBq"}, {"measurement": "Absorbed Dose in Cycle 1, Mean", "setting": "Osteogenic cells, N = 16", "result": 0.04, "unit": "Gy/GBq"}, {"measurement": "Absorbed Dose in Cycle 1, max", "setting": "Osteogenic cells, N = 16", "result": 0.19, "unit": "Gy/GBq"}, {"measurement": "Absorbed Dose in Cycle 1, min", "setting": "Osteogenic cells, N = 16", "result": 0.00, "unit": "Gy/GBq"}, {"measurement": "Absorbed Dose in Cycle 1, Mean", "setting": "[8]", "result": 0.02, "unit": "Gy/GBq"}, {"measurement": "Absorbed Dose in Cycle 1, max", "setting": "[8]", "result": 0.07, "unit": "Gy/GBq"}, {"measurement": "Absorbed Dose in Cycle 1, min", "setting": "[8]", "result": 0.00, "unit": "Gy/GBq"}, {"measurement": "Absorbed Dose, Mean", "setting": "Pancreas", "result": 0.02, "unit": "Gy/GBq"}, {"measurement": "Absorbed Dose, max", "setting": "Pancreas", "result": 0.07, "unit": "Gy/GBq"}, {"measurement": "Absorbed Dose, median", "setting": "Pancreas", "result": 0.01, "unit": "Gy/GBq"}]}
